According to patent US20240238333A1 (Penland Foundation, priority 2023, published 2024):

Assays:
[1] = tested on: substance P and glutamate; assay: Clinical observation of suppression of substance P and glutamate by nitrous oxide; type: in vivo
Text: The length of treatment to suppress the severe cytokine reaction will vary and be influenced by the time to medically correct the initiating factor. […] For children, adjustments will have to be made for age and body weight. […] Other inhalants can be included in the above-compositions such as for other purposes.

[2] = at effective dosages; cited from earlier work

SMILES: [N-]=[N+]=O [nitrous oxide]
- Duration of substance P suppression, average cases ([1]; average cases): 4 to 8 h
- duration of suppression of substance P and glutamate ([1]; conscious sedation levels, about 50% nitrous oxide/about 50% oxygen): 6 to 8 h
- respiratory depression, over sedation, or irritation of the lungs [2]: does not cause respiratory depression, over sedation, or irritation of the lungs
